Reference: article PMC4357015, “Structure, Function and Inhibition of the Phosphoethanolamine Methyltransferases of the Human Malaria Parasites Plasmodium vivax and Plasmodium knowlesi” (Scientific Reports, 2015)

Experiments:
pem1Δpem2Δ-pYES2.1-PkPMT = assay: yeast growth inhibition, pem1Δpem2Δ strain expressing PkPMT; format: cell-based; details: 100 μM AQ
Method: Figure 5 PMT-dependent inhibition of growth and PC biosynthesis by amodiaquine and NSC158011. (A–C): Growth curves of pem1Δpem2Δ-pYES2.1-PkPMT (A), pem1Δpem2Δ-pYES2.1-PvPMT (B), or Wild Type-pYES2.1- (C) strains grown in minimal medium containing 4% galactose and 1 mM ethanolamine in the presence or absence of 100 μM choline and 100 μM amodiaquine (AQ) as indicated. Growth curves of pem1Δpem2Δ-pYES2.1-PkPMT (D), pem1Δpem2Δ-pYES2.1-PvPMT (E), or Wild Type-pYES2.1- (F) strains maintained in minimal medium containing 4% galactose and 1 mM ethanolamine in the presence or absence of 100 μM choline and 10 μM NSC158011.
pem1Δpem2Δ-pYES2.1, pem1Δpem2Δ-pYES2.1-PkPMT, pem1Δpem2Δ-pYES2.1-PvPMT, and pem1Δpem2Δ-pYES2.1-PfPMT yeast strains were pre-grown overnight in uracil dropout synthetic galactose (4%) (SG-URA) medium supplemented with 2 mM ethanolamine (Etn). Cells were diluted to an A600 = 0.001 in fresh SG-URA medium supplemented with 2 mM Etn in the presence or absence of 100 μM Choline (Cho). Cells were grown at 30°C and the growth was monitored by measuring the A600. […]

[1] = system: PC biosynthesis in pem1Δpem2Δ-pYES2.1-PkPMT; assay: phospholipid analysis of yeast pem1Δpem2Δ strain expressing PkPMT; format: cell-based; details: 200 μM AQ
Method: Figure 6 PMT-dependent inhibition of PC biosynthesis by AQ and NSC158011. To assess the effect of AQ on phospholipid metabolism, […] and wild-type strains were grown in minimal medium containing 4% galactose and 2 mM ethanolamine in the absence or presence of 200 μM AQ, lipids were extracted and separated by TLC (A). Each lipid class was scrapped off the TLC plate and quantified by measuring phosphorus (B). The effect of NSC158011 on phospholipid biosynthesis was determined by [33P] orthophosphoric acid labeling as described in Material and Methods. Lipids were separated by TLC (C) and quantified by liquid scintillation spectrometry (D). For all assays, data were used to calculate the PC/PI + PA ratio. The data are represented as the mean ± S.D. of at least two independent experiments.
BY4741-pYes2.1 (wild-type) strains and the pem1Δpem2Δ strains harboring pYES2.1 vector, pYES2.1-PkPMT, pYES2.1-PvPMT or pYES2.1-PfPMT were pre-grown to mid-log phase at 30°C in SG-URA medium supplemented with Etn (2 mM) and Cho (2 mM). […] Each lipid class was excised from the plate and quantified by measuring phosphorus. […] After the growth, lipids were extracted and analyzed as described above. […] The resolved radioactive lipids were visualized by Phosphorimager (GE Typhoon) and quantified by liquid scintillation spectrometry as described.

PfPMT = system: PfPMT; set-up: method as in PMID 20085640, PMID 24145416; details: cited from earlier work

For `CCN(CC)Cc1cc(Nc2ccnc3cc(Cl)ccc23)ccc1O` [AQ, amodiaquine], the “growth of pem1Δpem2Δ+PkPMT strain in media supplemented with choline” value (pem1Δpem2Δ-pYES2.1-PkPMT; 100 μM choline) was “no effect”, the “growth of pem1Δpem2Δ+PkPMT strain” value (pem1Δpem2Δ-pYES2.1-PkPMT; ethanolamine medium without choline) was “significantly inhibited” and the “effect on the synthesis of PE” value [1] was “little to no effect”. For the same compound, the “mode of inhibition of PfPMT” value (PfPMT) was “non-competitive inhibitors”.
